Where two headings read alike, the source gives them in different places.
Key:
[1] = Three compartment PK model parameter estimation from etomidate PCT profile (64 bound combinations, MWDO + Nelder Mead); set-up: species or system humans
[2] = cited from earlier work; for Conc (plasma concentration): 18.3 mg intravenously, subject 60.9 kg
[3] = MWDO, Upper Bound 1 of Table 18
[4] = MWDO, Upper Bound 2 of Table 18
[5] = MWDO, Upper Bound 3 of Table 18
[6] = Nelder Mead, bound combination 1
[7] = Nelder Mead, bound combination 2
[8] = Nelder Mead, bound combination 3
[9] = best set over all 64 bound combinations

CCOC(=O)c1cncn1[C@H](C)c1ccccc1 [etomidate]
A, Globally optimized Parameter 1 [1, 3]: 0.2958 µg/mL
Alpha, Globally optimized Parameter 1 [1, 3]: 12.67 h⁻¹
B, Globally optimized Parameter 1 [1, 3]: 0.1079 µg/mL
Beta, Globally optimized Parameter 1 [1, 3]: 1.124 h⁻¹
C, Globally optimized Parameter 1 [1, 3]: 0.02617 µg/mL
Gamma, Globally optimized Parameter 1 [1, 3]: 0.1092 h⁻¹
A, Globally optimized Parameter 2 [1, 4]: 0.2529 µg/mL
Alpha, Globally optimized Parameter 2 [1, 4]: 10.44 h⁻¹
B, Globally optimized Parameter 2 [1, 4]: 0.1149 µg/mL
Beta, Globally optimized Parameter 2 [1, 4]: 0.351 h⁻¹
C, Globally optimized Parameter 2 [1, 4]: 0.005408 µg/mL
Gamma, Globally optimized Parameter 2 [1, 4]: 0.1074 h⁻¹
A, Globally optimized Parameter 3 [1, 5]: 0.13 µg/mL
Alpha, Globally optimized Parameter 3 [1, 5]: 5.539 h⁻¹
B, Globally optimized Parameter 3 [1, 5]: 0.1089 µg/mL
Beta, Globally optimized Parameter 3 [1, 5]: 0.3627 h⁻¹
C, Globally optimized Parameter 3 [1, 5]: 0.005084 µg/mL
Gamma, Globally optimized Parameter 3 [1, 5]: 0.0375 h⁻¹
A, Locally Optimized parameter 1 [1, 6]: 0.3151 µg/mL
Alpha, Locally Optimized parameter 1 [1, 6]: 11.49 h⁻¹
B, Locally Optimized parameter 1 [1, 6]: 0.1076 µg/mL
Beta, Locally Optimized parameter 1 [1, 6]: 0.8111 h⁻¹
C, Locally Optimized parameter 1 [1, 6]: 0.01292 µg/mL
Gamma, Locally Optimized parameter 1 [1, 6]: 0.03486 h⁻¹
A, Locally Optimized parameter 2 [1, 7]: 0.3151 µg/mL
Alpha, Locally Optimized parameter 2 [1, 7]: 11.49 h⁻¹
B, Locally Optimized parameter 2 [1, 7]: 0.1076 µg/mL
Beta, Locally Optimized parameter 2 [1, 7]: 0.8111 h⁻¹
C, Locally Optimized parameter 2 [1, 7]: 0.01292 µg/mL
Gamma, Locally Optimized parameter 2 [1, 7]: 0.03486 h⁻¹
A, Locally Optimized parameter 3 [1, 8]: 0.3151 µg/mL
Alpha, Locally Optimized parameter 3 [1, 8]: 11.49 h⁻¹
B, Locally Optimized parameter 3 [1, 8]: 0.1076 µg/mL
Beta, Locally Optimized parameter 3 [1, 8]: 0.8111 h⁻¹
C, Locally Optimized parameter 3 [1, 8]: 0.01292 µg/mL
Gamma, Locally Optimized parameter 3 [1, 8]: 0.03486 h⁻¹
A, Best Parameter/Best locally optimized value [1, 9]: 0.3151 µg/mL
A, Initial value/globally optimized value [1, 9]: 0.2703 µg/mL
Alpha, Best Parameter/Best locally optimized value [1, 9]: 11.49 h⁻¹
Alpha, Initial value/globally optimized value [1, 9]: 7.1437 h⁻¹
B, Best Parameter/Best locally optimized value [1, 9]: 0.1076 µg/mL
B, Initial value/globally optimized value [1, 9]: 0.07389 µg/mL
Beta, Best Parameter/Best locally optimized value [1, 9]: 0.8111 h⁻¹
Beta, Initial value/globally optimized value [1, 9]: 0.3665 h⁻¹
C, Best Parameter/Best locally optimized value [1, 9]: 0.01292 µg/mL
C, Initial value/globally optimized value [1, 9]: 0.01092 µg/mL
Gamma, Best Parameter/Best locally optimized value [1, 9]: 0.03486 h⁻¹
Gamma, Initial value/globally optimized value [1, 9]: 0.1479 h⁻¹
Conc (plasma concentration) ([2]; Time 0.067 hr): 260 ng/mL
Conc (plasma concentration) ([2]; Time 0.133 hr): 180 ng/mL
Conc (plasma concentration) ([2]; Time 0.25 hr): 115 ng/mL
Conc (plasma concentration) ([2]; Time 0.5 hr): 88 ng/mL
Conc (plasma concentration) ([2]; Time 1 hr): 59.9 ng/mL
Conc (plasma concentration) ([2]; Time 2 hr): 32.5 ng/mL
Conc (plasma concentration) ([2]; Time 3 hr): 21.3 ng/mL
Conc (plasma concentration) ([2]; Time 4 hr): 15.8 ng/mL
Conc (plasma concentration) ([2]; Time 5 hr): 12.6 ng/mL
Conc (plasma concentration) ([2]; Time 6 hr): 11.4 ng/mL
Conc (plasma concentration) ([2]; Time 7 hr): 10.5 ng/mL
Conc (plasma concentration) ([2]; Time 8 hr): 9.9 ng/mL
Conc (plasma concentration) ([2]; Time 9 hr): 9.5 ng/mL
Conc (plasma concentration) ([2]; Time 10 hr): 9.1 ng/mL
A, Published parameter value ([2]; three compartment model): 0.297 µg/mL
Alpha, Published parameter value ([2]; three compartment model): 12.02 h⁻¹
B, Published parameter value ([2]; three compartment model): 0.117 µg/mL
Beta, Published parameter value ([2]; three compartment model): 0.935 h⁻¹
C, Published parameter value ([2]; three compartment model): 0.017 µg/mL
Gamma, Published parameter value ([2]; three compartment model): 0.064 h⁻¹

Source: US20250062039A1, “ESTIMATION OF PHARMACOKINETIC (PK) PARAMETERS OF DRUG CANDIDATES USING UNIVERSAL PK PARAMETERS BOUNDS” (Tata Consultancy Services Limited, priority 2023, published 2025)
